Laboratory results: ChEMBL document CHEMBL6177962, “Design, synthesis and biological evaluation of 2-arylbenzo[b]furan-4-vinylcarbonyl derivatives based on Salvianolic acid C as antioxidant neuroprotective agents for the treatment of ischemic stroke” (Eur J Med Chem, 2025)
The source made the active and inactive calls. The calls are words filed in the database; no cut-off is given here.

Tested on: Rattus norvegicus
Assay: Neuroprotective activity against cerebral ischemia-reperfusion injury in MCAO rat model assessed as reduction in ROS accumulation in cortex at 10 mg/kg, iv treated after 2 hrs ischemia followed by reperfusion measured after 1 week of post-reperfusion by dihydroethidium staining based fluorescence microscopic analysis
Assay type: functional, organism-based
Conditions: time 1.0 weeks

Structure (SMILES)	Activity
CC1=NN(c2ccccc2)C(=O)C1	Active

Tested on: PC-12
Assay: Antioxidant activity in t-BHP -induced rat PC12 cells at 2.5 to 20 uM
Assay type: functional, cell-based
Conditions: dose 2.5-20 µM

Structure (SMILES)	Activity
COc1ccc(-c2cc3c(/C=C/C(=O)c4cc(OC)c(OC)c(OC)c4)ccc(OC)c3o2)cc1OC	Active
COc1ccc(-c2cc3c(/C=C/C(=O)NCCc4ccc(O)c(O)c4)ccc(OC)c3o2)cc1	Active
COc1ccc(/C=C/C(=O)NCCc2ccc(O)c(O)c2)c2cc(-c3ccc(C)cc3)oc12	Active

Tested on: PC-12
Assay: Cytotoxicity against rat PC12 cells assessed as cell viability at 40 uM incubated for 24 hrs by CCK-8 assay relative to control
Assay type: functional
Conditions: read-out: Activity

Structure (SMILES)	viability at 40 µM [%]
COc1ccc(C(=O)/C=C/c2ccc(OC)c3oc(-c4ccc(C)cc4)cc23)cc1F	98.8
COc1cc(C(=O)/C=C/c2ccc(OC)c3oc(-c4ccc(C)cc4)cc23)cc(OC)c1OC	102
COC(=O)[C@@H](NC(=O)/C=C/c1ccc(OC)c2oc(-c3ccc(C)cc3)cc12)c1ccccc1	99.3
COc1ccc(/C=C/C(=O)c2cccc(O)c2)c2cc(-c3ccc(C)cc3)oc12	80.6
COc1cc(OC)cc(-c2cc3c(/C=C/C(=O)c4ccc(O)c(OC)c4)ccc(OC)c3o2)c1	94.6
COc1cc(C(=O)/C=C/c2ccc(OC)c3oc(-c4ccc(C)cc4)cc23)cc(OC)c1O	82
COC(=O)[C@H](Cc1c[nH]c2ccccc12)NC(=O)/C=C/c1ccc(OC)c2oc(-c3ccc(C)cc3)cc12	117
CC[C@H](NC(=O)/C=C/c1ccc(OC)c2oc(-c3ccc(C)cc3)cc12)C(=O)OC	84
COc1cc(OC)cc(-c2cc3c(/C=C/C(=O)c4cc(OC)c(OC)c(OC)c4)ccc(OC)c3o2)c1	109
COC(=O)[C@@H](NC(=O)/C=C/c1ccc(OC)c2oc(-c3ccc(C)cc3)cc12)c1ccc(O)cc1	92
COC(=O)CNC(=O)/C=C/c1ccc(OC)c2oc(-c3ccc(C)cc3)cc12	93.9
COc1ccc(C(=O)/C=C/c2ccc(OC)c3oc(-c4ccc(C)cc4)cc23)c(OC)c1OC	83.9
COc1cc(OC)cc(-c2cc3c(/C=C/C(=O)NCCc4ccc(O)c(O)c4)ccc(OC)c3o2)c1	98.7
COc1ccc(-c2cc3c(/C=C/C(=O)c4cc(OC)c(OC)c(OC)c4)ccc(OC)c3o2)cc1OC	105
COc1ccc(C(=O)/C=C/c2ccc(OC)c3oc(-c4ccc(C)cc4)cc23)cc1OC	80.1
COc1ccc(-c2cc3c(/C=C/C(=O)c4ccc(O)c(OC)c4)ccc(OC)c3o2)cc1	116
COc1ccc(C(=O)/C=C/c2ccc(OC)c3oc(-c4ccc(C)cc4)cc23)cc1O	69.2
COC(=O)[C@@H]1CCC(=O)N1C(=O)/C=C/c1ccc(OC)c2oc(-c3ccc(C)cc3)cc12	95.3
COc1ccc(-c2cc3c(/C=C/C(=O)c4cc(OC)c(OC)c(OC)c4)ccc(OC)c3o2)cc1	72.9
COc1cc(C(=O)/C=C/c2ccc(OC)c3oc(-c4ccc(OC)c(OC)c4)cc23)ccc1O	93.8
COC(=O)[C@H](Cc1c[nH]c2ccccc12)NC(=O)/C=C/c1ccc(OC)c2oc(-c3ccc(OC)cc3)cc12	96

Structure (SMILES)	viability at 40 µM [%]
CCCC[C@H](NC(=O)/C=C/c1ccc(OC)c2oc(-c3ccc(C)cc3)cc12)C(=O)OC	93.5
COc1cc(C(=O)/C=C/c2ccc(OC)c3oc(-c4ccc(C)cc4)cc23)ccc1F	102
COC(=O)[C@H](CC1CCCCC1)NC(=O)/C=C/c1ccc(OC)c2oc(-c3ccc(C)cc3)cc12	96.1
COc1cccc(C(=O)/C=C/c2ccc(OC)c3oc(-c4ccc(C)cc4)cc23)c1	119
COc1ccc(/C=C/C(=O)c2ccc(O)cc2)c2cc(-c3ccc(C)cc3)oc12	84.1
COc1ccc(-c2cc3c(/C=C/C(=O)NCCc4ccc(O)c(O)c4)ccc(OC)c3o2)cc1	98.2
COc1cccc(C(=O)/C=C/c2ccc(OC)c3oc(-c4ccc(C)cc4)cc23)c1OC	78.2
COC(=O)[C@@H](NC(=O)/C=C/c1ccc(OC)c2oc(-c3ccc(C)cc3)cc12)C(C)C	94.2
COc1ccc(/C=C/C(=O)c2ccc(N3CCOCC3)cc2)c2cc(-c3ccc(C)cc3)oc12	85
COc1ccc(/C=C/C(=O)NCCc2ccccc2)c2cc(-c3ccc(C)cc3)oc12	99.1
COC(=O)[C@H](Cc1c[nH]c2ccccc12)NC(=O)/C=C/c1ccc(OC)c2oc(-c3ccc(OC)c(OC)c3)cc12	111
COc1ccc(/C=C/C(=O)NCCc2ccc(O)c(O)c2)c2cc(-c3ccc(C)cc3)oc12	103
COC(=O)[C@@H]1CCCN1C(=O)/C=C/c1ccc(OC)c2oc(-c3ccc(C)cc3)cc12	75.5
COc1ccc(-c2cc3c(/C=C/C(=O)NCCc4ccc(O)c(O)c4)ccc(OC)c3o2)cc1OC	104
COc1ccc(C(=O)/C=C/c2ccc(OC)c3oc(-c4ccc(C)cc4)cc23)cc1	99.5
COc1cc(C(=O)/C=C/c2ccc(OC)c3oc(-c4ccc(C)cc4)cc23)ccc1O	72.8
COc1ccc(/C=C/C(=O)c2ccc3c(c2)OCO3)c2cc(-c3ccc(C)cc3)oc12	95
COc1ccc(/C=C/C(=O)c2ccco2)c2cc(-c3ccc(C)cc3)oc12	107
COc1cc(OC)cc(C(=O)/C=C/c2ccc(OC)c3oc(-c4ccc(C)cc4)cc23)c1	92.2
COC(=O)[C@H](Cc1c[nH]c2ccccc12)NC(=O)/C=C/c1ccc(OC)c2oc(-c3cc(OC)cc(OC)c3)cc12	105

Tested on: PC-12
Assay: Neuroprotective activity against t-BHP induced oxidative damage in rat PC12 cells model assessed as reduction in intracellular ROS level at 10 uM incubated for 24 hrs by DCFH-DA probe based analysis
Assay type: functional, cell-based
Conditions: not given

Structure (SMILES)	Activity
CC1=NN(c2ccccc2)C(=O)C1	Active

Tested on: PC-12
Assay: Neuroprotective activity against t-BHP induced oxidative damage in rat PC12 cells model assessed as cell viability at 2.5 to 20 uM incubated for 24 hrs by CCK-8 assay
Assay type: functional, cell-based
Conditions: dose 2.5-20 µM

Structure (SMILES)	Activity
COc1ccc(-c2cc3c(/C=C/C(=O)c4cc(OC)c(OC)c(OC)c4)ccc(OC)c3o2)cc1OC	Active
COc1ccc(-c2cc3c(/C=C/C(=O)NCCc4ccc(O)c(O)c4)ccc(OC)c3o2)cc1	Active
COc1ccc(/C=C/C(=O)NCCc2ccc(O)c(O)c2)c2cc(-c3ccc(C)cc3)oc12	Active

Tested on: PC-12
Assay: Cytotoxicity against rat PC12 cells assessed as cell viability at 10 uM incubated for 24 hrs by CCK-8 assay relative to control
Assay type: functional
Conditions: read-out: Activity

Structure (SMILES)	viability at 10 µM [%]
COc1ccc(C(=O)/C=C/c2ccc(OC)c3oc(-c4ccc(C)cc4)cc23)cc1F	50.8
COc1cc(C(=O)/C=C/c2ccc(OC)c3oc(-c4ccc(C)cc4)cc23)cc(OC)c1OC	51.6
COC(=O)[C@@H](NC(=O)/C=C/c1ccc(OC)c2oc(-c3ccc(C)cc3)cc12)c1ccccc1	74.1
COc1ccc(/C=C/C(=O)c2cccc(O)c2)c2cc(-c3ccc(C)cc3)oc12	37.7
COc1cc(OC)cc(-c2cc3c(/C=C/C(=O)c4ccc(O)c(OC)c4)ccc(OC)c3o2)c1	45.6
COc1cc(C(=O)/C=C/c2ccc(OC)c3oc(-c4ccc(C)cc4)cc23)cc(OC)c1O	37.7
COC(=O)[C@H](Cc1c[nH]c2ccccc12)NC(=O)/C=C/c1ccc(OC)c2oc(-c3ccc(C)cc3)cc12	66.1
CC[C@H](NC(=O)/C=C/c1ccc(OC)c2oc(-c3ccc(C)cc3)cc12)C(=O)OC	66.4
COc1cc(OC)cc(-c2cc3c(/C=C/C(=O)c4cc(OC)c(OC)c(OC)c4)ccc(OC)c3o2)c1	89.2
COC(=O)[C@@H](NC(=O)/C=C/c1ccc(OC)c2oc(-c3ccc(C)cc3)cc12)c1ccc(O)cc1	69.7
COC(=O)CNC(=O)/C=C/c1ccc(OC)c2oc(-c3ccc(C)cc3)cc12	68.9
COc1ccc(C(=O)/C=C/c2ccc(OC)c3oc(-c4ccc(C)cc4)cc23)c(OC)c1OC	71.9
COc1cc(OC)cc(-c2cc3c(/C=C/C(=O)NCCc4ccc(O)c(O)c4)ccc(OC)c3o2)c1	76.7
COc1ccc(-c2cc3c(/C=C/C(=O)c4cc(OC)c(OC)c(OC)c4)ccc(OC)c3o2)cc1OC	95.5
COc1ccc(C(=O)/C=C/c2ccc(OC)c3oc(-c4ccc(C)cc4)cc23)cc1OC	42.9
COc1ccc(-c2cc3c(/C=C/C(=O)c4ccc(O)c(OC)c4)ccc(OC)c3o2)cc1	77.2
COc1ccc(C(=O)/C=C/c2ccc(OC)c3oc(-c4ccc(C)cc4)cc23)cc1O	14.9
COC(=O)[C@@H]1CCC(=O)N1C(=O)/C=C/c1ccc(OC)c2oc(-c3ccc(C)cc3)cc12	91
COc1ccc(-c2cc3c(/C=C/C(=O)c4cc(OC)c(OC)c(OC)c4)ccc(OC)c3o2)cc1	43.7
COc1cc(C(=O)/C=C/c2ccc(OC)c3oc(-c4ccc(OC)c(OC)c4)cc23)ccc1O	12.9
COC(=O)[C@H](Cc1c[nH]c2ccccc12)NC(=O)/C=C/c1ccc(OC)c2oc(-c3ccc(OC)cc3)cc12	94.4

Structure (SMILES)	viability at 10 µM [%]
CCCC[C@H](NC(=O)/C=C/c1ccc(OC)c2oc(-c3ccc(C)cc3)cc12)C(=O)OC	56
COc1cc(C(=O)/C=C/c2ccc(OC)c3oc(-c4ccc(C)cc4)cc23)ccc1F	83.8
COC(=O)[C@H](CC1CCCCC1)NC(=O)/C=C/c1ccc(OC)c2oc(-c3ccc(C)cc3)cc12	82.1
COc1cccc(C(=O)/C=C/c2ccc(OC)c3oc(-c4ccc(C)cc4)cc23)c1	55.7
COc1ccc(/C=C/C(=O)c2ccc(O)cc2)c2cc(-c3ccc(C)cc3)oc12	55.9
COc1ccc(-c2cc3c(/C=C/C(=O)NCCc4ccc(O)c(O)c4)ccc(OC)c3o2)cc1	99.2
COc1cccc(C(=O)/C=C/c2ccc(OC)c3oc(-c4ccc(C)cc4)cc23)c1OC	67.5
COC(=O)[C@@H](NC(=O)/C=C/c1ccc(OC)c2oc(-c3ccc(C)cc3)cc12)C(C)C	73.1
COc1ccc(/C=C/C(=O)c2ccc(N3CCOCC3)cc2)c2cc(-c3ccc(C)cc3)oc12	77.9
COc1ccc(/C=C/C(=O)NCCc2ccccc2)c2cc(-c3ccc(C)cc3)oc12	93.8
CC(C)(C)OO [TERT-BUTYL HYDROPEROXIDE]	52.1
COC(=O)[C@H](Cc1c[nH]c2ccccc12)NC(=O)/C=C/c1ccc(OC)c2oc(-c3ccc(OC)c(OC)c3)cc12	57.1
COc1ccc(/C=C/C(=O)NCCc2ccc(O)c(O)c2)c2cc(-c3ccc(C)cc3)oc12	99.3
COC(=O)[C@@H]1CCCN1C(=O)/C=C/c1ccc(OC)c2oc(-c3ccc(C)cc3)cc12	32.3
COc1ccc(-c2cc3c(/C=C/C(=O)NCCc4ccc(O)c(O)c4)ccc(OC)c3o2)cc1OC	70.7
COc1ccc(C(=O)/C=C/c2ccc(OC)c3oc(-c4ccc(C)cc4)cc23)cc1	56.8
COc1cc(C(=O)/C=C/c2ccc(OC)c3oc(-c4ccc(C)cc4)cc23)ccc1O	36.3
COc1ccc(/C=C/C(=O)c2ccc3c(c2)OCO3)c2cc(-c3ccc(C)cc3)oc12	58.1
COc1ccc(/C=C/C(=O)c2ccco2)c2cc(-c3ccc(C)cc3)oc12	78.5
COc1cc(OC)cc(C(=O)/C=C/c2ccc(OC)c3oc(-c4ccc(C)cc4)cc23)c1	76.1
COC(=O)[C@H](Cc1c[nH]c2ccccc12)NC(=O)/C=C/c1ccc(OC)c2oc(-c3cc(OC)cc(OC)c3)cc12	79.4

Tested on: not listed separately
Assay: Cytotoxicity against mouse RAW cells assessed as cell viability
Assay type: toxicity, cell-based
Set-up: concentration or dose not given beside the values
Conditions: read-out: Activity

Structure (SMILES)	viability [%]
COc1ccc(/C=C/C(=O)c2cccc(O)c2)c2cc(-c3ccc(C)cc3)oc12	< 80
COc1cc(OC)cc(-c2cc3c(/C=C/C(=O)NCCc4ccc(O)c(O)c4)ccc(OC)c3o2)c1	< 80
COc1ccc(-c2cc3c(/C=C/C(=O)c4cc(OC)c(OC)c(OC)c4)ccc(OC)c3o2)cc1	< 80
COc1cc(C(=O)/C=C/c2ccc(OC)c3oc(-c4ccc(OC)c(OC)c4)cc23)ccc1O	< 80
COc1ccc(/C=C/C(=O)c2ccc(O)cc2)c2cc(-c3ccc(C)cc3)oc12	< 80
COc1ccc(/C=C/C(=O)c2ccco2)c2cc(-c3ccc(C)cc3)oc12	< 80

Tested on: PC-12
Assay: Neuroprotective activity against t-BHP induced oxidative damage in rat PC12 cells model assessed as reduction in intracellular ROS level at 10 uM incubated for 24 hrs by DCFH-DA probe based flow cytometry analysis
Assay type: functional, cell-based
Conditions: not given

Structure (SMILES)	Activity
CC1=NN(c2ccccc2)C(=O)C1	Active

Tested on: Rattus norvegicus
Assay: Neuroprotective activity against cerebral ischemia-reperfusion injury in MCAO rat model assessed as reduction in infarct area at 10 mg/kg, iv treated after 2 hrs ischemia followed by reperfusion measured after 1 week of post-reperfusion by TTC staining based analysis
Assay type: functional, organism-based
Conditions: time 1.0 weeks

Structure (SMILES)	Activity
CC1=NN(c2ccccc2)C(=O)C1	Active
